Measurements as given in paper PMC10866072, “Design, synthesis, molecular modelling and biological evaluation of novel 6-amino-5-cyano-2-thiopyrimidine derivatives as potent anticancer agents against leukemia and apoptotic inducers” (Journal of Enzyme Inhibition and Medicinal Chemistry, 2024).

What was measured:
HL-60(TB) = format: cell-based
K-562 = format: cell-based
EKVX = format: cell-based
NCI-H226 = format: cell-based
HCC-2998 = format: cell-based
SF-268 = format: cell-based
SNB-75 = format: cell-based
MALME-3M = format: cell-based
OVCAR-3 = format: cell-based
OVCAR-5 = format: cell-based
NCI/ADR-RES = format: cell-based
RXF 393 = format: cell-based; settings: five-dose
SN12C = format: cell-based, human; settings: Homo sapiens, one dose 10^-5 M, 48 h
DU-145 = format: cell-based
BT-549 = format: cell-based
T-47D = format: cell-based
PI3Kα = biological target: T1, PI3Kα (Homo sapiens, UniProt P42336); experiment: PI3 Kinase Activity/Inhibitor Assay Kit; format: biochemical; settings: mean of two independent replicates ± SD
T1 construct: purchased Millipore Corporation 17-493 (assay kit)
T1 sequence (P42336 whole entry, species assumed): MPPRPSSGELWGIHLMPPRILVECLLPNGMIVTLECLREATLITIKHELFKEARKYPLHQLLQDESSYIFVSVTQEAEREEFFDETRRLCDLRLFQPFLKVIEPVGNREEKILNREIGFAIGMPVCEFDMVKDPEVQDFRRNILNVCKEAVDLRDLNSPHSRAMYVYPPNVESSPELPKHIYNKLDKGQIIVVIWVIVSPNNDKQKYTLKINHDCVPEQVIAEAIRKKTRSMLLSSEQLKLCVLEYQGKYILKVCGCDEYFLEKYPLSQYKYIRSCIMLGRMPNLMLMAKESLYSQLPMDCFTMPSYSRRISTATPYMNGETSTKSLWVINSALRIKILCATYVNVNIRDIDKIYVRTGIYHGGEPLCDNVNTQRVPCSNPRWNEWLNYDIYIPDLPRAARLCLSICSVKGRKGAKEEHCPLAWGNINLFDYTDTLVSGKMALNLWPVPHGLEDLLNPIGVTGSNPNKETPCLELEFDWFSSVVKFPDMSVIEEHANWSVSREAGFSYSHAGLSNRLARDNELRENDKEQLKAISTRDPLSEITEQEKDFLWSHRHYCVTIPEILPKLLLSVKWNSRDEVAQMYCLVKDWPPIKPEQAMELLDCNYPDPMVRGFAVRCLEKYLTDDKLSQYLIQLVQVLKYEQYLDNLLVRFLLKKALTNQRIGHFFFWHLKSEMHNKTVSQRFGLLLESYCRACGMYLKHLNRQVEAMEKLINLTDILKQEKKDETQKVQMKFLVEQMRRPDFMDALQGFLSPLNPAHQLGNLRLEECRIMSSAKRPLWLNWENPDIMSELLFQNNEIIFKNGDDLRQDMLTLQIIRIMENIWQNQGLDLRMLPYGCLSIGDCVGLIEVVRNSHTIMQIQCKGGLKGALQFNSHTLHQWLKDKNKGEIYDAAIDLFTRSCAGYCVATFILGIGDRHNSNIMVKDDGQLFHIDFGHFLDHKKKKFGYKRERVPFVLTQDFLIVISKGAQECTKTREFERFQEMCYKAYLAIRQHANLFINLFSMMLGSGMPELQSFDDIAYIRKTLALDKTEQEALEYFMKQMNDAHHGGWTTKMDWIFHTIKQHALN
T1 sequence (P27986 whole entry partner, species assumed): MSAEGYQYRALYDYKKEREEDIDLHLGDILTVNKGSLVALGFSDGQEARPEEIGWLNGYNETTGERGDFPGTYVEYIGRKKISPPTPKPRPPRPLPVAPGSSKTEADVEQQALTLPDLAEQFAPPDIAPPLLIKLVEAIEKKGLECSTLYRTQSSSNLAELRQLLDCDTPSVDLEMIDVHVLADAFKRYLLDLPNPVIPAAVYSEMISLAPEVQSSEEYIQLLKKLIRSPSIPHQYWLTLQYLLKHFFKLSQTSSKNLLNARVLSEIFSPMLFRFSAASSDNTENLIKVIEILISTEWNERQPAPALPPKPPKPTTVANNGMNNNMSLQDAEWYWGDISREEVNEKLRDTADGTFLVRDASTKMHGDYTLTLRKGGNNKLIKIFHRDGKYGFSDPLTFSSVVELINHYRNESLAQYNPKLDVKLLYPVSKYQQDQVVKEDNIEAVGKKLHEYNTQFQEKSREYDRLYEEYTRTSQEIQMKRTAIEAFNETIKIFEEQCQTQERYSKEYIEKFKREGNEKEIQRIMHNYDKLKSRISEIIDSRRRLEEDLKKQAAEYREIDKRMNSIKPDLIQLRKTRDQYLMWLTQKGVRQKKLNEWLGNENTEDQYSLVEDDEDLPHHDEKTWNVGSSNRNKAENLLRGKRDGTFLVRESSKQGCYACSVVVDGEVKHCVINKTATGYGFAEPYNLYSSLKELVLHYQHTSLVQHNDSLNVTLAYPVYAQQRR
Experimental: In vitro PI3 kinases inhibitory activity assay
All buffers, working standards and samples were prepared.
A total of 5 μl/well 5X kinase reaction buffer was added following the addition of the substrate, then distilled water was added to fill up to 25 μl. After incubation for 1 h at room temperature, 25 μl of biotinylated PIP3/EDTA working solution was added to all wells except the buffer control. Instead, 25 μl tris-buffered saline (TBS) was added to the buffer control wells. A general receptor phosphoinsitides -1 working solution was added to all wells then, was incubated for 1 h at room temperature. After incubation, all wells were washed with 200 μl 1X TBS -Tween followed by addition of 50 μl (horseradish peroxide as econjugated streptavidin) SA -HRP then were incubated for 1 h at room temperature. All wells were washed using 100 μl 1X TBS -Tween and TBS followed by addition of 100 μl of substrate 3,3’,5,5’-tetramethylbenzidine and kept in dark for 5–20 min.

HL60 cells = experiment: Cell cycle analysis (propidium iodide, flow cytometry); format: cell-based, human; settings: HL60, 48 h treatment
Experimental: (§1) Compound 1c was selected as a potent candidate, its effect on cell cycle phases of HL60 and leukaemia SR cells was investigated using propidium iodide staining and flow cytometric analysis according to the cell cycle kit (Abcam ®, ab139418-)[90]^,[91]^. Briefly, HL60 and leukaemia SR cells were cultured under optimum conditions. Afterwards, cells were treated by compound 1c for 48 h. Then, they were harvested, washed with PBS, and cell fixation was performed using ethanol on ice. Additionally, cells were pelleted at 500 xg for 5 min and supernatant was gently aspirated. Furthermore, fixed cells were washed by phosphate-buffered saline (PBS) and resuspended in 200 µl 1 x propidium iodide + RNAse staining solution and incubated in dark for 30 min. Finally, stained cells were tested by flow cytometer using FACSCalibur (Becton Dickinson Biosciences, CA, USA). Finally, Cell Quest software (Becton Dickinson Biosciences) was used to determine cell cycle distribution.

leukaemia SR cells = experiment: as above; format: cell-based, human; settings: 48 h treatment
Experimental: as §1

[1] = tested on: caspase 3 level in HL60 cells; experiment: Caspase 3 ELISA; format: cell-based, human; settings: HL 60 cells
Experimental: (§2) One of the most significant downstream caspases, Caspase-3, is referred to as an effector caspase[94]^,[95]. For further analysis, the effect of compound 1c on caspase 3 enzyme level was measured using ELISA kit (Invitrogen, Catalog # KHO1091) according to the manufacturer’s instructions. Briefly, 100 µl of the standard diluent buffer to the zero standard wells. Additionally, 100 µl of standards and controls or diluted samples were added to the appropriate microtiter wells, then wells were covered with plate cover and incubated for 2 h at R.T. Afterwards, wells were aspirated gently, washed with washing buffer 4 times. Furthermore, 100 µl of caspase 3 detection antibody was added into each well except the blank wells, and the plate was covered and incubated for 1 h at R.T. Then, the aspiration and washing steps were repeated again. Finally, 100 µl of the stabilised chromogen solution were added, plate was incubated for 30 min at R.T., stop solution was used to stop the reaction and the developed colour was measured at wave length 450 nm using plat ELISA reader.

[2] = tested on: caspase 3 level in leukaemia SR cells; experiment: Caspase 3 ELISA; format: cell-based, human
Experimental: as §2

[3] = tested on: Non-small cell lung cancer cell lines; experiment: NCI-60 five-dose, subpanel
Description: (§3) Furthermore, the average sensitivity of all cell lines to the compound is termed as the full panel mean graph midpoints (MG-MID). The complete panel mean graph midpoints refers to the average sensitivity of all cell lines to the chemical (MG-MID). A measure of a compound’s selectivity for a given cell line is the ratio created by dividing the full panel mean graph midpoints (MG-MID) concentration by the individual subpanel MG-MID concentrations (obtained as the average sensitivity of all the cell lines in a given subpanel to the test compound).
(§4) Assessment of selectivity of a compound depends on the ratio obtained by dividing the full panel MID ^a by their individual subpanel MID ^b (µM) where MID^a is the average sensitivity of all cell lines towards the test agent (µM).

melanoma cell lines = experiment: NCI-60 five-dose, subpanel
Description: as §3, §4

Renal cancer cell lines = experiment: NCI-60 five-dose, subpanel
Description: (§5) A measure of a compound’s selectivity for a given cell line is the ratio created by dividing the full panel mean graph midpoints (MG-MID) concentration by the individual subpanel MG-MID concentrations (obtained as the average sensitivity of all the cell lines in a given subpanel to the test compound).
as §4

[4] = tested on: Prostate cancer cell lines; experiment: NCI-60 five-dose, subpanel
Description: as §5, §4

[5] = Homo sapiens, five-dose, read-out: LC50 (the source's name)
[6] = Homo sapiens, one dose 10^-5 M, 48 h
[7] = Homo sapiens, read-out: GI50 Subpanel MID^b

N#Cc1c(N)nc(S)nc1-c1ccc(Cl)cc1Cl [Compound 1c, 4-Amino-6–(2,4-dichlorophenyl)-2-mercaptopyrimidine-5-carbonitrile]
GI50 (HL-60(TB); Homo sapiens, five-dose): 0.08 µM
CC50 (HL-60(TB); [5]): > 100 µM
% growth at 10 µM (HL-60(TB); [6]): 5.3%
TGI (HL-60(TB); five-dose): 1.82 µM
GI50 (K-562; Homo sapiens, K562, five-dose): 0.14 µM
CC50 (K-562; Homo sapiens, K562, five-dose, read-out: LC50 (the source's name)): > 100 µM
% growth at 10 µM (K-562; Homo sapiens, K562, one dose 10^-5 M, 48 h): 36.9%
TGI (K-562; five-dose): >100 µM
GI50 (EKVX; Homo sapiens, five-dose): 14.3 µM
LC50 (EKVX; Homo sapiens, five-dose): 62.6 µM
% cell growth at 10 µM (EKVX; [6]): 98.6%
TGI (EKVX; five-dose): 29.90 µM
GI50 (NCI-H226; Homo sapiens, five-dose): 16.5 µM
LC50 (concentration killing 50% of tumour cells) (NCI-H226; Homo sapiens, five-dose): 82 µM
% growth at 10 µM (NCI-H226; [6]): 64.4%
TGI (NCI-H226; five-dose): 36.80 µM
GI50 (HCC-2998; Homo sapiens, five-dose): 13 µM
CC50 (HCC-2998; [5]): 51.5 µM
% growth at 10 µM (HCC-2998; [6]): 83.3%
TGI (HCC-2998; five-dose): 25.90 µM
GI50 (SF-268; Homo sapiens, five-dose): 18.1 µM
CC50 (SF-268; [5]): > 100 µM
activity at 10 µM (SF-268; Homo sapiens, one dose 10^-5 M, 48 h, read-out: % growth): 51%
TGI (SF-268; five-dose): 52.70 µM
GI50 (SNB-75; Homo sapiens, five-dose): 4.9 µM
LC50 (SNB-75; Homo sapiens, five-dose): 79.9 µM
% growth at 10 µM (SNB-75; [6]): 36.5%
TGI (SNB-75; five-dose): 25.50 µM
GI50 (MALME-3M; Homo sapiens, five-dose): 15.3 µM
CC50 (MALME-3M; [5]): 69.7 µM
% growth at 10 µM (MALME-3M; [6]): 4.96%
TGI (MALME-3M; five-dose): 32.70 µM
GI50 (OVCAR-3; Homo sapiens, five-dose): 18.1 µM
CC50 (OVCAR-3; [5]): > 100 µM
% growth at 10 µM (OVCAR-3; [6]): 17.1%
TGI (OVCAR-3; five-dose): 47.60 µM
GI50 (OVCAR-5; Homo sapiens, five-dose): 16.4 µM
CC50 (OVCAR-5; [5]): 63.2 µM
percent cell growth at 10 µM (OVCAR-5; [6]): 93.5%
TGI (OVCAR-5; five-dose): 32.20 µM
GI50 (NCI/ADR-RES; Homo sapiens, five-dose): 0.7 µM
CC50 (NCI/ADR-RES; [5]): > 100 µM
cell growth percent at 10 µM (NCI/ADR-RES; [6]): 37.9%
TGI (NCI/ADR-RES; five-dose): 26.20 µM
GI50 (RXF 393; Homo sapiens): 12.7 µM
CC50 (RXF 393; Homo sapiens, read-out: LC50 (the source's name)): 52.2 µM
TGI (RXF 393): 25.70 µM
% growth at 10 µM (SN12C): 62.1%
GI50 (DU-145; Homo sapiens, five-dose): 14.9 µM
LC50 (DU-145; Homo sapiens, five-dose): 57.4 µM
% growth at 10 µM (DU-145; [6]): 51.3%
TGI (DU-145; five-dose): 29.20 µM
GI50 (BT-549; Homo sapiens, five-dose): 14.9 µM
CC50 (BT-549; [5]): 62.7 µM
% cell growth at 10 µM (BT-549; [6]): 42.1%
TGI (BT-549; five-dose): 30.50 µM
GI50 (T-47D; Homo sapiens, T47D, five-dose): 9.87 µM
CC50 (T-47D; Homo sapiens, T47D, five-dose, read-out: LC50 (the source's name)): > 100 µM
activity at 10 µM (T-47D; Homo sapiens, T47D, one dose 10^-5 M, 48 h, read-out: % growth): 54.5%
TGI (T-47D; five-dose): 32.30 µM
IC50 (PI3Kα): 0.88 ± 0.005 µM
% cells in G0/G1 (%DIP G1) (HL60 cells): 57.37%
% cells in S phase (HL60 cells): 33.07%
% cells in G1 (%DIP G1) (leukaemia SR cells): 55.22%
% cells in S phase (leukaemia SR cells): 31.89%
caspase 3 level increase vs untreated control [1]: 5.6 folds
caspase 3 level increase vs untreated control [2]: 3.4 folds
GI50 [3, 7]: 18.1 µM
Selectivity ratio (full panel MID^a / subpanel MID^b, GI50 level) ([3]; non-small cell lung cancer): 0.7
GI50 (melanoma cell lines; [7]): 10.7 µM
Selectivity ratio (full panel MID^a / subpanel MID^b, GI50 level) (melanoma cell lines; melanoma): 1.2
GI50 (Renal cancer cell lines; [7]): 14.2 µM
Selectivity ratio (full panel MID^a / subpanel MID^b, GI50 level) (Renal cancer cell lines; renal cancer): 0.9
GI50 [4, 7]: 13 µM
Selectivity ratio (full panel MID^a / subpanel MID^b, GI50 level) ([4]; prostate cancer): 0.99
